Measurements reported in ChEMBL document CHEMBL1944628, “Bioanalytical Screening of Riboflavin Antagonists for Targeted Drug Delivery - A Thermodynamic and Kinetic Study” (ACS Med Chem Lett, 2011).
pKd, pKi: −log10 of the molar value.

Columns and labels:
[1] = target: T1, Riboflavin-binding protein (Gallus gallus) (UniProt P02752); experiment: Competitive inhibition of chicken riboflavin binding protein binding to immobilized ligand by surface plasmon resonance assay
T1 sequence (whole entry): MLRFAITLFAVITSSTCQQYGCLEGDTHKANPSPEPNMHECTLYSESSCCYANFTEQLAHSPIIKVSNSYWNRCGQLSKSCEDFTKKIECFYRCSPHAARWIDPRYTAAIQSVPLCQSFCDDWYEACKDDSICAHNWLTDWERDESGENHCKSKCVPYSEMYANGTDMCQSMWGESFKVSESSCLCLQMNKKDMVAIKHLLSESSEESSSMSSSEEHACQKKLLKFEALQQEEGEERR

[2] = target: T2, Riboflavin-binding protein (Gallus gallus, UniProt P02752); experiment: Binding affinity to chicken riboflavin binding protein by surface plasmon resonance assay
T2 sequence (P02752 whole entry): T1 sequence (whole entry)

[3] = target: T1, Riboflavin-binding protein (Gallus gallus); experiment: Competitive inhibition of chicken riboflavin binding protein binding to immobilized ligand at 500 uM by surface plasmon resonance assay
[4] = target: T2, Riboflavin-binding protein; experiment: Binding affinity to chicken riboflavin binding protein assessed as dissociation constant at pH 7.4 in phosphate buffer by isothermal titration calorimetric assay
[5] = target: T2, Riboflavin-binding protein; experiment: Binding affinity to chicken riboflavin binding protein assessed as dissociation constant at pH 7.4 in 0.1 M phosphate buffer by isothermal titration calorimetric assay
[6] = target: T2, Riboflavin-binding protein; experiment: Binding affinity to chicken riboflavin binding protein assessed as dissociation constant at pH 4 in 0.1 M NaAc by isothermal titration calorimetric assay
[7] = target: T2, Riboflavin-binding protein; experiment: Binding affinity to chicken riboflavin binding protein assessed as dissociation constant at pH 9 in 0.1 M Tris by isothermal titration calorimetric assay
[8] = target: T2, Riboflavin-binding protein; experiment: Competitive inhibition of chicken riboflavin binding protein by surface plasmon resonance assay

In the case of `Cc1cc2nc3c(=O)n(CC(=O)NCCCN)c(=O)nc-3n(C[C@H](O)[C@H](O)[C@H](O)CO)c2cc1C`, the inhibition [1] was “Dose-dependent effect”, the pKd [2] was 4.45 and the inhibition [3] was 90%.
`Cc1cc2nc3c(=O)[nH]c(=O)nc-3n(C)c2cc1C` [LUMIFLAVIN] gave a pKd [4] of 7.21.
With `Cc1cc2nc3c(=O)[nH]c(=O)nc-3n(C[C@H](O)[C@H](O)[C@H](O)CO)c2cc1C` [RIBOFLAVIN] the pKd [4] was 8.30, the pKd [5] was 8.18 and the pKd [6] was 7.34. The pKd [7] was 7.47 and the pKi [8] was 6.46.
